Reference: US11807625B2, “Capsid inhibitors for the prevention of HIV” (Gilead Sciences, Inc., priority 2019, dated 2023)
Read-outs that look alike come from different tables or passages of the source.

Experiment: PK of compound of Formula (Ia) after single subcutaneous dose of solution formulations in Wistar Han rats
Format: in vivo
Settings: male, Wistar Han, rat, plasma, mean ± SD, SC 50 mg/kg; for AUC(0-t) / Cmax: sc, 50 mg/kg
Procedure: Formulations containing the compound of Formula (Ia), or a pharmaceutically acceptable salt thereof, were prepared as solutions and optionally administered subcutaneously or intramuscularly to rats, rabbits, and/or dogs.
(§1) A solution of about 400 mg/mL of the compound of Formula (Ia) having 19.14 w/w % water, 40.66 w/w % PEG 300, 35.20 w/w % of a sodium salt of a compound of Formula (Ia), and 5.00% ethanol was prepared. The solution was administered subcutaneously to male Wistar Han rats at a dose level of about 50 mg/kg and dose volume of 0.125 mL/kg and the pharmacokinetic (PK) profile was determined.
as §1, with “500” for “400”, “16.64” for “19.14”, “35.36” for “40.66”, “43.00” for “35.20”, “0.1” for “0.125”
(§2) A solution of about 400 mg/mL of the compound of Formula (Ia) having 17.00 w/w % water, 36.40 w/w % PEG 300, 35.20 w/w % of a sodium salt of a compound of Formula (Ia), 5.00 w/w % ethanol, and 6.40 w/w % poloxamer 188 was prepared. The solution was administered subcutaneously to male beagle dogs at a dose level of about 12 mg/kg and male Wistar Han rats at a dose level of about 50 mg/kg. The pharmacokinetic profiles were determined, and the results for dogs are summarized in Table and Table, while the results for rats are summarized in Table and Table below.
as §2, with “500” for “400”, “14.06” for “17.00”, “30.12” for “36.40”
A solution of about 300 mg/mL of the compound of Formula (Ia) having 23.33 w/w % water, 48.99 w/w % PEG 300, 26.47 w/w % of a sodium salt of a compound of Formula (Ia), and 1.21 w/w % poloxamer 188 was prepared. The solution was administered subcutaneously to male beagle dogs at a dose level of about 6 mg/kg and male Wistar Han rats at a dose level of about 50 mg/kg. The pharmacokinetic profiles were determined, and the results for dogs are summarized in Table and Table, while the results for rats are summarized in Table and Table below.
as §2, with “18.80” for “17.00”, “40.25” for “36.40”, “34.38” for “35.20”, “1.57” for “6.40”
as §2, with “500” for “400”, “16.29” for “17.00”, “34.88” for “36.40”, “41.92” for “35.20”, “1.91” for “6.40”
A solution of about 400 mg/mL of the compound of Formula (Ia) having 20.90 w/w % water, 44.72 w/w % PEG 300, and 34.38 w/w % of a sodium salt of a compound of Formula (Ia) was prepared. […]

[1] = n = 5 rats, solution T, 400 mg/mL

AUC(0-t) (n = 3 rats, solution R, 400 mg/mL, read-out: AUC0-1344h): 402 ± 58 µM·h | AUC(0-t) (n = 3 rats, solution R, 400 mg/mL, read-out: AUC0-1680h): 504 ± 80 µM·h | AUC(0-t) (n = 3 rats, solution R, 400 mg/mL, read-out: AUC0-2352h): 649 ± 95 µM·h | AUC(0-t) (n = 3 rats, solution R, 400 mg/mL, read-out: AUC0-3024h): 752 ± 92 µM·h | AUC(0-t) (n = 3 rats, solution R, 400 mg/mL, read-out: AUC0-3696h): 825 ± 80 µM·h | AUC(0-t) (n = 3 rats, solution R, 400 mg/mL, read-out: AUC0-4704h): 915 ± 44 µM·h | AUC(0-t) (n = 3 rats, solution R, 400 mg/mL, read-out: AUC0-5376h): 958 ± 21 µM·h | AUC(0-t) (n = 3 rats, solution R, 400 mg/mL, read-out: AUC0-6048h): 988 ± 4 µM·h | AUC(0-t) (n = 3 rats, solution R, 400 mg/mL, read-out: AUC0-7392h): 1020 ± 18 µM·h | AUC(0-t) (n = 3 rats, solution R, 400 mg/mL, read-out: AUC0-8064h): 1030 ± 25 µM·h | Cmax (n = 3 rats, solution S, 500 mg/mL): 328 ± 131 nM | AUC(0-t) (n = 3 rats, solution S, 500 mg/mL, read-out: AUC0-24 h): 2.47 ± 0.39 µM·h | AUC(0-t) (n = 3 rats, solution S, 500 mg/mL, read-out: AUC0-168 h): 19.7 ± 3.1 µM·h | AUC(0-t) (n = 3 rats, solution S, 500 mg/mL, read-out: AUC0-336 h): 44.2 ± 7.5 µM·h | AUC(0-t) (n = 3 rats, solution S, 500 mg/mL, read-out: AUC0-672 h): 133 ± 40 µM·h | AUC(0-t) (n = 3 rats, solution S, 500 mg/mL, read-out: AUC0-1008 h): 233 ± 79 µM·h | AUC(0-t) (n = 3 rats, solution S, 500 mg/mL, read-out: AUC0-1344 h): 334 ± 120 µM·h | AUC(0-t) (n = 3 rats, solution S, 500 mg/mL, read-out: AUC0-1680 h): 426 ± 148 µM·h | AUC(0-t) (n = 3 rats, solution S, 500 mg/mL, read-out: AUC0-2352 h): 554 ± 185 µM·h | AUC(0-t) (n = 3 rats, solution S, 500 mg/mL, read-out: AUC0-3024 h): 652 ± 203 µM·h | AUC(0-t) (n = 3 rats, solution S, 500 mg/mL, read-out: AUC0-3696 h): 722 ± 216 µM·h | AUC(0-t) (n = 3 rats, solution S, 500 mg/mL, read-out: AUC0-4704 h): 817 ± 224 µM·h | AUC(0-t) (n = 3 rats, solution S, 500 mg/mL, read-out: AUC0-5376 h): 861 ± 226 µM·h | AUC(0-t) (n = 3 rats, solution S, 500 mg/mL, read-out: AUC0-6048 h): 896 ± 220 µM·h | AUC(0-t) (n = 3 rats, solution S, 500 mg/mL, read-out: AUC0-6720 h): 923 ± 229 µM·h | AUC(0-t) (n = 3 rats, solution S, 500 mg/mL, read-out: AUC0-7392 h): 945 ± 229 µM·h | AUC(0-t) (n = 3 rats, solution S, 500 mg/mL, read-out: AUC0-8064 h): 964 ± 228 µM·h | AUC(0-t) (n = 3 rats, solution V, 300 mg/mL, read-out: AUC0-24 h): 3.66 ± 4.29 µM·h | AUC(0-t) (n = 3 rats, solution V, 300 mg/mL, read-out: AUC0-168 h): 24.5 ± 5.4 µM·h | AUC(0-t) (n = 3 rats, solution V, 300 mg/mL, read-out: AUC0-336 h): 50.1 ± 9.2 µM·h | AUC(0-t) (n = 3 rats, solution V, 300 mg/mL, read-out: AUC0-672 h): 137 ± 27 µM·h | AUC(0-t) (n = 3 rats, solution V, 300 mg/mL, read-out: AUC0-1008 h): 237 ± 52 µM·h | AUC(0-t) (n = 3 rats, solution V, 300 mg/mL, read-out: AUC0-1344 h): 331 ± 85 µM·h | AUC(0-t) (n = 3 rats, solution V, 300 mg/mL, read-out: AUC0-1680 h): 423 ± 96 µM·h | AUC(0-t) (n = 3 rats, solution V, 300 mg/mL, read-out: AUC0-2352 h): 554 ± 113 µM·h | AUC(0-t) (n = 3 rats, solution V, 300 mg/mL, read-out: AUC0-3024 h): 646 ± 121 µM·h | AUC(0-t) (n = 3 rats, solution V, 300 mg/mL, read-out: AUC0-3696 h): 700 ± 121 µM·h | AUC(0-t) (n = 3 rats, solution V, 300 mg/mL, read-out: AUC0-4704 h): 720 ± 120 µM·h | Cmax [1]: 450 ± 155 nM | AUC(0-t) (n = 5 rats, solution T, 400 mg/mL, read-out: AUC0-24 h): 5.49 ± 1.6 µM·h | AUC(0-t) (n = 5 rats, solution T, 400 mg/mL, read-out: AUC0-168 h): 40.6 ± 15.3 µM·h | AUC(0-t) (n = 5 rats, solution T, 400 mg/mL, read-out: AUC0-336 h): 76.4 ± 25.3 µM·h | AUC(0-t) (n = 5 rats, solution T, 400 mg/mL, read-out: AUC0-672 h): 173 ± 75.6 µM·h | AUC(0-t) (n = 5 rats, solution T, 400 mg/mL, read-out: AUC0-1008 h): 313 ± 157 µM·h | AUC(0-t) (n = 5 rats, solution T, 400 mg/mL, read-out: AUC0-1344 h): 394 ± 185 µM·h | AUC(0-t) (n = 5 rats, solution T, 400 mg/mL, read-out: AUC0-1680 h): 485 ± 195 µM·h | AUC(0-t) (n = 5 rats, solution T, 400 mg/mL, read-out: AUC0-2352 h): 581 ± 146 µM·h | AUC(0-t) (n = 5 rats, solution T, 400 mg/mL, read-out: AUC0-3024 h): 655 ± 112 µM·h | AUC(0-t) (n = 5 rats, solution T, 400 mg/mL, read-out: AUC0-3696 h): 679 ± 103 µM·h | AUC(0-t) (n = 5 rats, solution T, 400 mg/mL, read-out: AUC0-4704 h): 718 ± 88 µM·h | AUC(0-t) (n = 5 rats, solution T, 400 mg/mL, read-out: AUC0-5376 h): 745 ± 76 µM·h | AUC(0-t) (n = 5 rats, solution T, 400 mg/mL, read-out: AUC0-6048 h): 766 ± 66 µM·h | AUC(0-t) (n = 5 rats, solution T, 400 mg/mL, read-out: AUC0-6720 h): 783 ± 59 µM·h | Cmax (n = 5 rats, solution U, 500 mg/mL): 362 ± 147 nM | AUC(0-t) (n = 5 rats, solution U, 500 mg/mL, read-out: AUC0-24 h): 3.74 ± 0.78 µM·h | AUC(0-t) (n = 5 rats, solution U, 500 mg/mL, read-out: AUC0-168 h): 29.8 ± 7.5 µM·h | AUC(0-t) (n = 5 rats, solution U, 500 mg/mL, read-out: AUC0-336 h): 63.2 ± 20.7 µM·h | AUC(0-t) (n = 5 rats, solution U, 500 mg/mL, read-out: AUC0-672 h): 159 ± 77 µM·h | AUC(0-t) (n = 5 rats, solution U, 500 mg/mL, read-out: AUC0-1008 h): 338 ± 141 µM·h | AUC(0-t) (n = 5 rats, solution U, 500 mg/mL, read-out: AUC0-1344 h): 409 ± 159 µM·h | AUC(0-t) (n = 5 rats, solution U, 500 mg/mL, read-out: AUC0-1680 h): 529 ± 194 µM·h | AUC(0-t) (n = 5 rats, solution U, 500 mg/mL, read-out: AUC0-2352 h): 610 ± 215 µM·h | AUC(0-t) (n = 5 rats, solution U, 500 mg/mL, read-out: AUC0-3024 h): 669 ± 233 µM·h | AUC(0-t) (n = 5 rats, solution U, 500 mg/mL, read-out: AUC0-3696 h): 692 ± 233 µM·h | AUC(0-t) (n = 5 rats, solution U, 500 mg/mL, read-out: AUC0-4704 h): 728 ± 249 µM·h | AUC(0-t) (n = 5 rats, solution U, 500 mg/mL, read-out: AUC0-5376 h): 756 ± 256 µM·h | AUC(0-t) (n = 5 rats, solution U, 500 mg/mL, read-out: AUC0-6048 h): 781 ± 261 µM·h | AUC(0-t) (n = 5 rats, solution U, 500 mg/mL, read-out: AUC0-6720 h): 802 ± 266 µM·h | AUC (n = 3 rats, solution R, 400 mg/mL, read-out: AUC0-6720n): 1007 ± 8 µM·h | Tmax [1]: 18.8 ± 17.5 days
SMILES: CC(C)(C#Cc1ccc(-c2ccc(Cl)c3c(NS(C)(=O)=O)nn(CC(F)(F)F)c23)c([C@H](Cc2cc(F)cc(F)c2)NC(=O)Cn2nc(C(F)(F)F)c3c2C(F)(F)[C@@H]2C[C@H]32)n1)S(C)(=O)=O [compound of Formula (Ia)]
